Values quoted from earlier work in patent US6387861B1, “Detergent compositions” (Unilever Home & Personal Care USA division of Conopco, Inc., priority 1999, dated 2002).
Like-named read-outs stand apart in the source and are kept apart here.

Conditions: 20° C.

Row | Water Solubility (grams of solid to form a saturated solution in 100 grams of water, highly water-soluble materials) [g/100 g] | SMILES | Water Solubility (other common materials) [g/100 g]
1 | >100 | NC(N)=O [Urea] | 
2 |  | O=BO[O-].[Na+] [Sodium perborate anhydrous] | 3.7
3 |  | O=P(O)(O)OP(=O)(O)OP(=O)(O)O [Sodium tripolyphosphate anhydrous] | 15
